Measurements from article PMC3069034, “Structuring Detergents for Extracting and Stabilizing Functional Membrane Proteins” (PLoS ONE, 2011).

Target: BmrA (Bacillus subtilis, UniProt O06967)
Assay: intrinsic tryptophan fluorescence quenching of purified protein
Format: binding
Source text: intrinsic tryptophan fluorescence quenching of purified protein on BmrA | the binding of daunorubicin was similar for both detergents.

Chain of BmrA (O06967 whole entry): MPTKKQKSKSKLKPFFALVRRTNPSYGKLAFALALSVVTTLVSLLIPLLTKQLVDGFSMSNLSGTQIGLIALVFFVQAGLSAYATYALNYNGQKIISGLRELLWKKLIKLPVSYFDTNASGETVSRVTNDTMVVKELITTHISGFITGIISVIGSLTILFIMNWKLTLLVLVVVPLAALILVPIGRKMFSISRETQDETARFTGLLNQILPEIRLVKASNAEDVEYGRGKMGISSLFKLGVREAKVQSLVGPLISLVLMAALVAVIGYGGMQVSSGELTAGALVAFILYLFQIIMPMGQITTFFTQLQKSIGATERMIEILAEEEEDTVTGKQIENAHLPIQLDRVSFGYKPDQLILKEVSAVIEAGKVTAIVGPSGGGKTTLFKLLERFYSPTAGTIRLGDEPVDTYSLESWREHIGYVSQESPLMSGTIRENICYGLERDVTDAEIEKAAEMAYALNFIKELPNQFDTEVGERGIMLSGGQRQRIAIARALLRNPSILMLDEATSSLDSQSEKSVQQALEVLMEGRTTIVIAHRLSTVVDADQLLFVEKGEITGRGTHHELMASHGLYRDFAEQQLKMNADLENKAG

Compound: COc1cccc2c1C(=O)c1c(O)c3c(c(O)c1C2=O)C[C@@](O)(C(C)=O)C[C@@H]3O[C@H]1C[C@H](N)[C@H](O)[C@H](C)O1 [daunorubicin]
- Kd: 12.4 ± 0.8 µM
